Reference: ChEMBL document CHEMBL1201862, “PubChem BioAssay data set” (2004)
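The compound was tested at five concentrations on cells cultured in 96-well plates, with a 48-hour exposure period. Abbreviation: GI50, concentration required for 50% inhibition of growth.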 Calls of active or inactive are those of the source. Rule as the data show it: active = GI50 up to about 1.1 µM and inactive = higher.

Key:
Assay in all cases: NCI-60 cell line screen, 48 h
DLD-1 = tested on: DLD-1
DMS-114 = tested on: DMS-114
DMS-273 = tested on: DMS-273
HOP-18 = tested on: HOP-18
KM-20L2 = tested on: KM-20L2
LXFL 529 = tested on: LXFL 529
RXF 631 = tested on: RXF 631
SNB-78 = tested on: SNB-78
XF498 = tested on: XF498

SMILES | GI50 (DLD-1) | GI50 (DMS-114) | GI50 (DMS-273) | GI50 (HOP-18) | GI50 (KM-20L2) | GI50 (LXFL 529) | GI50 (RXF 631) | GI50 (SNB-78) | GI50 (XF498)
O=c1[nH]c(=O)n([C@@H]2C[C@H](CO)[C@H](O)C2)cc1/C=C/Br | > 100 µM (inactive) | > 100 µM (inactive) | > 100 µM (inactive) | > 100 µM (inactive) | > 100 µM (inactive) | > 100 µM (inactive) | > 100 µM (inactive) | > 100 µM (inactive) | 
Cc1ccccc1NC(=O)/C=N/O | > 100 µM (inactive) | > 100 µM (inactive) | > 100 µM (inactive) | > 100 µM (inactive) | 16.9 µM (inactive) | > 100 µM (inactive) |  |  | 
CCCCCCCCCCCCC(Br)C(C)=O (configuration not stated) | > 100 µM (inactive) | > 100 µM (inactive) | > 100 µM (inactive) | > 100 µM (inactive) | > 100 µM (inactive) | > 100 µM (inactive) | > 100 µM (inactive) | > 100 µM (inactive) | > 100 µM (inactive)
COc1cc2c(cc1OC)[C@@H]([C@H](O)c1ccccc1)NCC2 | > 100 µM (inactive) | > 100 µM (inactive) | > 100 µM (inactive) | > 100 µM (inactive) | > 100 µM (inactive) | > 100 µM (inactive) | > 97.3 µM (inactive) | > 100 µM (inactive) | > 100 µM (inactive)
CCC1(CC)C(=O)NC(=S)N=C1N | > 100 µM (inactive) | > 100 µM (inactive) | > 100 µM (inactive) | > 100 µM (inactive) | > 100 µM (inactive) | > 100 µM (inactive) | > 100 µM (inactive) |  | > 100 µM (inactive)
CC12CCC(=O)C[C@H]1CCC(OC=O)C2Br (some centres not stated) | > 100 µM (inactive) | > 100 µM (inactive) | > 100 µM (inactive) | > 100 µM (inactive) | > 100 µM (inactive) | > 100 µM (inactive) |  |  | > 100 µM (inactive)
O=C(N/C(=C\c1ccc([N+](=O)[O-])cc1)c1nc2cc(Cl)ccc2[nH]1)c1ccccc1 | 13.5 µM (inactive) | 16.3 µM (inactive) |  |  | 16.3 µM (inactive) | 17.1 µM (inactive) |  | 23.8 µM (inactive) | 15.3 µM (inactive)
COc1ccc(C(C2=C(O)CC(C)OC2=O)C2=C(O)CC(C)OC2=O)cc1 (configuration not stated) | > 100 µM (inactive) | > 100 µM (inactive) | > 100 µM (inactive) |  | > 100 µM (inactive) | > 100 µM (inactive) | > 100 µM (inactive) | > 100 µM (inactive) | 
COc1ccc2[nH]c3c4c(c5cc(C(C)(C)C)ccc5c3c2c1)C(=O)N(c1ccccc1)C4=O | 13.4 µM (inactive) | > 100 µM (inactive) |  | 34.8 µM (inactive) | > 100 µM (inactive) | > 100 µM (inactive) |  | > 100 µM (inactive) | 
COC1CCC(OS(C)(=O)=O)C(CO)O1 (configuration not stated) | > 100 µM (inactive) |  |  |  | > 100 µM (inactive) | > 100 µM (inactive) |  |  | > 100 µM (inactive)
CC(C)[C@H](COC(C)(C)C)/N=C/N1CSc2ccccc21 | 48.4 µM (inactive) | 21.8 µM (inactive) | 16.8 µM (inactive) |  | 27.8 µM (inactive) | 34.7 µM (inactive) | 27.4 µM (inactive) | 30 µM (inactive) | 16.9 µM (inactive)
O=C1Nc2ccccc2N=CC1NC(=O)C(c1ccccc1)c1ccccc1 (configuration not stated) | > 100 µM (inactive) | 86.5 µM (inactive) | > 100 µM (inactive) | > 100 µM (inactive) | > 100 µM (inactive) | > 100 µM (inactive) | > 100 µM (inactive) | > 100 µM (inactive) | 
COC(=O)C(=O)C(C(=O)C(=O)Nc1ccc(C)cc1C)c1nc2ccccc2nc1O (configuration not stated) | 50.7 µM (inactive) |  |  | 36 µM (inactive) | > 100 µM (inactive) | 43.9 µM (inactive) | 46.7 µM (inactive) | 41.6 µM (inactive) | 58.3 µM (inactive)
ClCc1ccc(C2OCCO2)cc1 | 17.2 µM (inactive) | > 24 µM (inactive) | 18.3 µM (inactive) | 37.5 µM (inactive) | > 45.9 µM (inactive) | 17.1 µM (inactive) | > 100 µM (inactive) | 14.4 µM (inactive) | 18.8 µM (inactive)
COc1ccc(/C(Cl)=C(\C=O)c2ccc(OC)c(OC)c2)cc1OC | > 92 µM (inactive) | > 90.2 µM (inactive) | > 90.4 µM (inactive) | > 98.2 µM (inactive) | > 100 µM (inactive) |  |  | > 100 µM (inactive) | > 88.9 µM (inactive)
COc1ccc(C(=O)Nc2ccc(S(=O)(=O)NCC(=O)O)cc2)cc1 | > 100 µM (inactive) |  | > 100 µM (inactive) | > 100 µM (inactive) | > 100 µM (inactive) | > 100 µM (inactive) | > 100 µM (inactive) |  | > 100 µM (inactive)
O=C(/N=C(\Nc1ccccc1)SCCS/C(=N/C(=O)c1cccs1)Nc1ccccc1)c1cccs1 | 40 µM (inactive) | 30.2 µM (inactive) | 58.7 µM (inactive) |  | 41.9 µM (inactive) | 46.9 µM (inactive) |  |  | 34.4 µM (inactive)
O=c1cc(-c2ccccc2)nc(/C=C(\O)c2ccncc2)n1-c1ccccc1 | > 100 µM (inactive) | > 100 µM (inactive) | > 100 µM (inactive) | > 100 µM (inactive) | > 100 µM (inactive) | > 100 µM (inactive) |  | > 100 µM (inactive) | 
CCNC(=O)COc1ccc(Cl)cc1Cl | > 100 µM (inactive) | > 100 µM (inactive) | > 100 µM (inactive) | > 100 µM (inactive) | > 100 µM (inactive) | > 100 µM (inactive) | > 100 µM (inactive) | > 100 µM (inactive) | 
OCC(O)C(OC1OC(CO)C(O)C(O)C1O)c1nn(-c2ccc(F)cc2)c2nc3cc(Cl)c(Cl)cc3cc12 (configuration not stated) | > 100 µM (inactive) | > 100 µM (inactive) |  |  | > 100 µM (inactive) | > 100 µM (inactive) |  | > 100 µM (inactive) | > 100 µM (inactive)
NC1=NN(c2ccccc2)C(=O)C1C(=O)CCC(=O)Nc1cccc(Cl)c1 (configuration not stated) | > 100 µM (inactive) | > 100 µM (inactive) | > 100 µM (inactive) | > 100 µM (inactive) | > 100 µM (inactive) | > 100 µM (inactive) |  | > 100 µM (inactive) | > 100 µM (inactive)
Cc1ccccc1NC(=O)/C(=N\NC(N)=S)C(C#N)c1ccccc1 (configuration not stated) | > 100 µM (inactive) | 72.4 µM (inactive) | > 100 µM (inactive) | > 100 µM (inactive) | > 100 µM (inactive) | > 100 µM (inactive) | > 100 µM (inactive) | > 100 µM (inactive) | 
Cc1ccc(NC(=O)CC/C(CC(=O)C(C)(C)C)=N\Nc2ccc([N+](=O)[O-])cc2[N+](=O)[O-])cc1C | 47.6 µM (inactive) | 30 µM (inactive) |  | > 100 µM (inactive) | > 100 µM (inactive) | 40.9 µM (inactive) | > 100 µM (inactive) | > 100 µM (inactive) | 
COc1cc(C2C(Cl)C(=O)N2NC(=O)Cc2ccccc2)ccc1O (configuration not stated) | > 100 µM (inactive) | 50.2 µM (inactive) | > 100 µM (inactive) | 40.3 µM (inactive) | > 100 µM (inactive) | 70.6 µM (inactive) |  | > 100 µM (inactive) | > 100 µM (inactive)
CCOc1ccc(/C(Cl)=C(\C=O)c2ccc(OC)c(OC)c2)cc1OCC | 68.7 µM (inactive) | 11 µM (inactive) | 45.8 µM (inactive) | > 100 µM (inactive) | > 100 µM (inactive) | 30.5 µM (inactive) |  | 36.8 µM (inactive) | 53.2 µM (inactive)
Cc1ccc(NC(=O)NC23CC4CC(CC(F)(C4)C2)C3)cc1 | > 100 µM (inactive) | 46.6 µM (inactive) | 86.3 µM (inactive) |  | 45.9 µM (inactive) | 88.7 µM (inactive) |  | > 100 µM (inactive) | > 100 µM (inactive)
COc1ccc(/C=N/N=C(\N)NO)c(Cl)c1O | 25.5 µM (inactive) | 5.9 µM (inactive) |  | 2.22 µM (inactive) |  | 2.89 µM (inactive) |  | 34.1 µM (inactive) | 
Cc1ccc(/C=C2\CNC/C(=C\c3ccc(C)cc3)C2=O)cc1 | 0.34 µM (active) | 1.86 µM (inactive) | 1.24 µM (inactive) | > 10 µM (inactive) | 1.32 µM (inactive) | 1.28 µM (inactive) |  | > 100 µM (inactive) | 2.59 µM (inactive)
